Key:
[1] = system: cultured chick heart cells; assay: Effect of valinomycin on tetraphenylborate enhancement of Tc-MIBI accumulation in high Ko buffer (Table 1); format: cell-based; settings: for Tc-MIBI Net Uptake: n = 3
Protocol: Monolayers of spontaneously contractile chick ventricular myocardial cells were obtained from disaggregated 10-day old chick embryo hearts by a slight modification of previously published methods (Horres, C. R., et al., In Pinson, A. (ed.), The Heart Cell in Culture, Boca Raton, CRC Press, pp. 77-108 (1987)). Hearts were trimmed of connective tissue and atria, finely minced and serially exposed to 0.024% (w/v) trypsin in Ca^2+ - and Mg^2+ - free Earle's salt solution for 7 minutes at 37° C. Gentle trituration and agitation on an orbital shaker bath aided disaggregation. Cells released from the first exposure were discarded and cells aspirated from the next four exposures were then added to an equal volume of trypsin deactivating solution consisting of ice-cold culture medium. Cells were centrifuged at 400 g for 10 minutes, resuspended and combined in culture medium, counted with a hemocytometer and diluted to yield a suspension of 5×10^5 cells/ml. 12 ml of suspension were incubated in 100 mm plastic culture dishes containing 7 coverslips (25 mm diameter) placed on the bottom of each dish to serve as substrate for cell growth. Cells were maintained in a humidified atmosphere of 5% CO2 /95% air for 3-4 days yielding a confluent layer of spontaneously contractile myocytes on each coverslip.
Radioactive uptake methods have been described in detail (Piwnica-Worms, D., et al, Circ. (in press). Briefly, coverslips with confluent cells were removed from culture media and pre-equilibrated for 40-60 seconds in MEBSS buffer. Uptake and retention experiments were initiated by immersion of coverslips in 60 mm glass Pyrex dishes containing loading solution consisting of buffer with 0.1-0.6 nM [^99m Tc-MIBI] (0.01-0.4 Ci/nmole; 25-100 uCi/ml). Preparations were removed at various times and rinsed three times in 25 ml volumes of ice-cold (2° C.) isotope-free buffer for 8 seconds each to clear extracellular spaces. Preparations and aliquots of the loading buffer and stock solutions were counted in a well-type sodium iodide gamma counter after which cell protein on each coverslip was extracted in 1% sodium dodecylsulfate with 10 mM sodium borate and assayed by the method of Lowry (Lowry, O. H., et al., J. Biol. Chem. 193:265-275 (1951)). Tc-MIBI binding to glass coverslips without cells was used as an estimate of non-specific adhesion to the substrate ([…] obtained with cellular preparations); this value was subtracted from total uptake determinations to derive the cell-associated counts. Use of generator equilibrium equations (Lamson, M. L., et al., i J. Nucl. Med. 16:639-641 (1975)) allowed calculation of absolute moles of Tc-MIBI in solutions and preparations. Results were therefore expressed as fmol cellular Tc-MIBI/mg protein per nM extracellular Tc-MIBI concentration. Division of this value by the cell water space (6.9 ul/mg protein; Chiu, M. L., et al., J. Nucl. Med. (31:1646-1653(1990)) yields a nominal intracellular/extracellular Tc-MIBI accumulation ratio neglecting subcellular compartmentation of the agent.
To further explore the influence of TPB on any potential-independent accumulation of Tc-MIBI in myocytes, preparations were exposed to 130 mM K° 20 mM Clo buffer (Table 1). […] Equilibration of intracellular and extracellular spaces occurred in the presence of high K buffer plus valinomycin under all conditions (in/out ration ~1; P=NS) indicating the lack of any significant potential-independent membrane binding of Tc-MIBI.
Preparations were incubated in high Ko low Clo loading buffer +/- valinomycin (1 ug/ml) for 20 minutes in the presence of TPB (10^-5 M) or for 40 minutes in its absence to determine peak accumulation of Tc-MIBI under each condition. Values are the mean ±SEM. Tc-MIBI in/out ratios were obtained by dividing net uptake values by the cell water space of […] (Chiu, M. L., et al., J. Nucl. 31:1646-1653 (1990)). +p<0.01; * p<0.001 compared to net uptake in 130 mM Ko buffer.

[2] = system: cultured chick heart cells; assay: Ko-dependence of Tc-MIBI net uptake in the absence and presence of TPB (FIG. 5); format: cell-based; settings: absence of TPB; more pronounced in presence of TPB
Protocol: FIG. 5. Ko -dependence of Tc-MIBI net uptake in the absence ( ) and presence (.quadrature.) of TPB (10^-5 M). Peak accumulation of Tc-MIBI was determined in preparations incubated in loading buffers containing the indicated Ko (equimolar replacement of NaCl by KCl) for 40 minutes (control) or for 20 minutes (+TPB). Ko -induced cell volume changes were prevented by addition of bumetanide (10^-5 M) to each buffer. Each point is the mean ±SEM of 3 determinations. Solid lines have no theoretical significance. The dashed line represents the Tc-MIBI content expected at each Ko assuming an intracellular/extracellular Tc-MIBI concentration ratio equal to the Ki /Ko ratio.
Monolayers of spontaneously contractile chick ventricular myocardial cells were obtained from disaggregated 10-day old chick embryo hearts by a slight modification of previously published methods (Horres, C. R., et al., In Pinson, A. (ed.), The Heart Cell in Culture, Boca Raton, CRC Press, pp. 77-108 (1987)). Hearts were trimmed of connective tissue and atria, finely minced and serially exposed to 0.024% (w/v) trypsin in Ca^2+ - and Mg^2+ - free Earle's salt solution for 7 minutes at 37° C. […] Cells were centrifuged at 400 g for 10 minutes, resuspended and combined in culture medium, counted with a hemocytometer and diluted to yield a suspension of 5×10^5 cells/ml. […]

[C-]#[N+]CC(C)(C)OC.[C-]#[N+]CC(C)(C)OC.[C-]#[N+]CC(C)(C)OC.[C-]#[N+]CC(C)(C)OC.[C-]#[N+]CC(C)(C)OC.[C-]#[N+]CC(C)(C)OC.[Tc] [Tc-MIBI, hexakis(methoxyisobutylisonitrile)technetium(I)]
Tc-MIBIi/Tc-MIBIo (in/out ratio) ([1]; 130 Ko (no TPB)): 9.5 | Tc-MIBI Net Uptake ([1]; 130 Ko (no TPB), 40 minutes): 65.3 ± 5.3 fmol/mg protein/nMo | Tc-MIBIi/Tc-MIBIo (in/out ratio) ([1]; 130 Ko + TPB 10^-5 M): 13.6 | Tc-MIBIi/Tc-MIBIo (in/out ratio) ([1]; 130 Ko + TPB 10^-5 M + valinomycin 1 ug/ml): 1.1 | Tc-MIBI Net Uptake ([1]; 130 Ko + TPB 10^-5 M + valinomycin 1 ug/ml, 20 minutes, p<0.001 vs 130 mM Ko): 7.6 ± 0.8 fmol/mg protein/nMo | Tc-MIBI Net Uptake ([1]; 130 Ko + TPB 10^-5 M, 20 minutes, p<0.01 vs 130 mM Ko): 93.9 ± 4.4 fmol/mg protein/nMo | Tc-MIBIi/Tc-MIBIo (in/out ratio) ([1]; 130 Ko + valinomycin 1 ug/ml): 0.9 | Tc-MIBI Net Uptake ([1]; 130 Ko + valinomycin 1 ug/ml, 40 minutes, p<0.001 vs 130 mM Ko): 6.2 ± 0.3 fmol/mg protein/nMo | in/out ratio, high K buffer plus valinomycin ([1]; all conditions, P=NS): ~ 1 | nominal intracellular/extracellular accumulation ratio vs Ki/Ko ratio [2]: greater than those expected from the Ki /Ko ratios in the absence of TPB
